Reference: PMC3656252 (The Journal of Biological Chemistry, 2013)
No end group written: not given here.

Key:
DP9 [1] = test: 1.7 milliunits of recombinant DP9 in assay buffer: 50 mM Tris, 100 mM NaCl, pH 8.0; settings: human, 37 °C, up to 24 h
DP8 [2] = test: 1.7 milliunits of recombinant DP8 in assay buffer: 50 mM Tris, 100 mM NaCl, pH 8.0; settings: human, 37 °C, up to 24 h
DP9 [3] = settings: cited from earlier work
Source text: (§1) In vitro, both DP8 and DP9 cleave the well known DP4 substrates neuropeptide Y(1–36), glucagon-like peptide-1(7–36), glucagon-like peptide-2(1–33), and peptide YY(1–36) ([18], [19]). […] However, as DP8 and DP9 are intracellular enzymes, it is unlikely that these secreted substrates will be of physiological relevance in vivo. Clues for their in vivo roles come from studies blocking DP ...

DP8 [4] = settings: cited from earlier work
Source text: as §1

Molecule: AEVKKPAAAAAPGTAEKLSP
- not cleaved (DP9 [1]): nc (not cleaved) after 24 h
- not cleaved (DP8 [2]): nc (not cleaved) after 24 h

Molecule: APAEILNGKEISAQIR
- cleaved bond (DP9 [1]): P-A
- cleaved bond (DP8 [2]): P-A

Molecule: APGQLALFSVSDKTGLVEFAR
- cleaved bond (DP9 [1]): P-G
- cleaved bond (DP8 [2]): P-G

Molecule: APKFPDSVEELRAAG
- cleaved bond (DP9 [1]): P-K
- cleaved bond (DP8 [2]): P-K

Molecule: APLDLDKYVEIARLCK
- cleaved bond (DP9 [1]): P-L
- cleaved bond (DP8 [2]): P-L

Molecule: APSVPAAEPEYPKGIR
- cleaved bond (DP9 [1]): P-S, 1 h
- cleaved bond (DP8 [2]): P-S, 1 h

Molecule: APVLSKDSADIESILALNPR
- cleaved bond (DP9 [1]): P-V
- cleaved bond (DP8 [2]): P-V

Molecule: ASGANFEYIIAEKRGK
- not cleaved (DP9 [1]): nc (not cleaved) after 24 h
- not cleaved (DP8 [2]): nc (not cleaved) after 24 h

Molecule: ATAKGIAIGIDLGTTYSCVG
- not cleaved (DP9 [1]): nc (not cleaved) after 24 h
- not cleaved (DP8 [2]): nc (not cleaved) after 24 h

Molecule: DDEVDVDGTVEEDLGKSR
- not cleaved (DP9 [1]): nc (not cleaved) after 24 h
- not cleaved (DP8 [2]): nc (not cleaved) after 24 h

Molecule: EPAVYFKEQFLDGDGWTSR
- cleaved bond (DP9 [1]): P-A, 1 h
- cleaved bond (DP8 [2]): P-A, 1 h

Molecule: PPKKGGDGIKPPPIIGR
- cleaved bond (DP9 [1]): P-K
- cleaved bond (DP8 [2]): P-K

Molecule: SPADLPKSWDWRNVDG
- cleaved bond (DP9 [1]): P-A
- cleaved bond (DP8 [2]): P-A

Molecule: VSKPTLKEVVIVSATR
- not cleaved (DP9 [1]): nc (not cleaved) after 24 h
- not cleaved (DP8 [2]): nc (not cleaved) after 24 h

Molecule: glucagon-like peptide-1(7–36): well known DP4 substrate (HAEGTFTSDVSSYLEGQAAKEFIAWLVKGR; ends and bridges not checked; UniProt P01275 98-127, looked up)
- Cleavage by DP9 in vitro (DP9 [3]): cleave
- Cleavage by DP8 in vitro (DP8 [4]): cleave

Molecule: glucagon-like peptide-2(1–33): well known DP4 substrate (HADGSFSDEMNTILDNLAARDFINWLIQTKITD; Glucagon-like peptide 2; UniProt P01275 146-178, looked up)
- Cleavage by DP9 in vitro (DP9 [3]): cleave
- Cleavage by DP8 in vitro (DP8 [4]): cleave

Molecule: interferon-γ-inducible protein: chemokine, known DP4 substrate
- DP8 cleavage of chemokines in vitro (DP8 [4]): cleavage

Molecule: neuropeptide Y(1–36): well known DP4 substrate
- Cleavage by DP9 in vitro (DP9 [3]): cleave
- Cleavage by DP8 in vitro (DP8 [4]): cleave

Molecule: peptide YY(1–36): well known DP4 substrate
- Cleavage by DP9 in vitro (DP9 [3]): cleave
- Cleavage by DP8 in vitro (DP8 [4]): cleave

B1: interferon-inducible T cell α-chemoattractant: chemokine, known DP4 substrate (protein, UniProt O14625 22-94, looked up)
C-X-C motif chemokine 11: FPMFKRGRCLCIGPGVKAVKVADIEKASIMYPSNNCDKIEVIITLKENKGQRCLNPKSKQARLIIKKVERKNF
- DP8 cleavage of chemokines in vitro (DP8 [4]): cleavage
